From ChEMBL document CHEMBL1201862, “PubChem BioAssay data set” (2004)
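Values below derive from 48-hour exposures of cells grown in 96-well plates, with endpoints linearly interpolated between the two concentrations bracketing the appropriate inhibition level. Abbreviation: GI50, concentration required for 50% inhibition of growth.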 Active and inactive are the calls of the source. Cut-off read from the data, not from the text of the source: active = GI50 up to about 1.1 µM and inactive = higher.

Assays:
Assay in all cases: inhibition of tumour cell growth, NCI panel, 48 h
EKVX = tested on: EKVX
SF-539 = tested on: SF-539
SNB-78 = tested on: SNB-78
SNB-75 = tested on: SNB-75
SF-268 = tested on: SF-268
A549 = tested on: A549
HCT-116 = tested on: HCT-116
LOX IMVI = tested on: LOX IMVI
A498 = tested on: A498
K562 = tested on: K562
Malme-3M = tested on: Malme-3M
SN12C = tested on: SN12C
HCT-15 = tested on: HCT-15
U-251 = tested on: U-251
OVCAR-4 = tested on: OVCAR-4
CCRF-CEM = tested on: CCRF-CEM
OVCAR-5 = tested on: OVCAR-5
MCF7 = tested on: MCF7
MDA-MB-435 = tested on: MDA-MB-435
Hs-578T = tested on: Hs-578T

Structure (SMILES) | GI50 (EKVX) | GI50 (SF-539) | GI50 (SNB-78) | GI50 (SNB-75) | GI50 (SF-268) | GI50 (A549) | GI50 (HCT-116) | GI50 (LOX IMVI) | GI50 (A498) | GI50 (K562) | GI50 (Malme-3M) | GI50 (SN12C) | GI50 (HCT-15) [µM] | GI50 (U-251) | GI50 (OVCAR-4) | GI50 (CCRF-CEM) | GI50 (OVCAR-5) | GI50 (MCF7) | GI50 (MDA-MB-435) | GI50 (Hs-578T)
CCNc1nc2c(=O)n(C)c(=O)n(C)c2s1 | > 100 µM (inactive) | > 100 µM (inactive) | > 100 µM (inactive) | > 100 µM (inactive) | > 100 µM (inactive) | > 100 µM (inactive) | > 100 µM (inactive) | > 100 µM (inactive) | > 100 µM (inactive) | > 100 µM (inactive) | > 100 µM (inactive) | > 100 µM (inactive) | > 100 | > 100 µM (inactive) | > 100 µM (inactive) | > 100 µM (inactive) | > 100 µM (inactive) |  |  | 
O=C1NC2(CCCCC2)C(=O)N1CCN(CCCl)CCCl [SPIROMUSTINE] | 204 µM (inactive) | 114 µM (inactive) | 148 µM (inactive) | 173 µM (inactive) |  | 135 µM (inactive) | 190 µM (inactive) | 104 µM (inactive) | > 250 µM (inactive) | 214 µM (inactive) | 165 µM (inactive) | 112 µM (inactive) |  | 182 µM (inactive) | > 239 µM (inactive) | 45.8 µM (inactive) | > 233 µM (inactive) | 113 µM (inactive) | > 25 µM (inactive) | > 25 µM (inactive)
CC1=CC(=O)N(c2c(C)cccc2Cl)C(C)N1 (centres undefined) | > 100 µM (inactive) | > 100 µM (inactive) | > 100 µM (inactive) | > 100 µM (inactive) | > 100 µM (inactive) | > 100 µM (inactive) | > 100 µM (inactive) | > 100 µM (inactive) | > 100 µM (inactive) | > 100 µM (inactive) | > 100 µM (inactive) | > 100 µM (inactive) | > 100 | > 100 µM (inactive) | > 100 µM (inactive) | > 100 µM (inactive) | > 100 µM (inactive) |  |  | 
COc1cccc(NC(=O)C(C)(C)C)c1C=O | 35.3 µM (inactive) | 68.4 µM (inactive) | 51.2 µM (inactive) | 39.3 µM (inactive) | 47.5 µM (inactive) | 71.1 µM (inactive) | 35.6 µM (inactive) | 46.1 µM (inactive) | > 100 µM (inactive) | 26.9 µM (inactive) | > 100 µM (inactive) | 63.1 µM (inactive) | 35.4 | 36.6 µM (inactive) | 46.1 µM (inactive) | 32.1 µM (inactive) | 62.5 µM (inactive) |  |  | 
